Test results taken from the kinase profiling compilation of Christmann-Franck et al. (2016).

Experiments:
Assay in all cases: KINOMEscan competition binding
Conditions in all cases: compound 10.0 µM
[1] = target: ERBB2 (human) (UniProt P04626)
[2] = target: ACVR1B (human) (UniProt P36896)
[3] = target: FLT4 (human) (UniProt P35916)
[4] = target: CSNK1E (human) (UniProt P49674)
[5] = target: EPHA3 (human) (UniProt P29320)
[6] = target: PLK3 (human) (UniProt Q9H4B4)
[7] = target: PRKD3 (human) (UniProt O94806)
[8] = target: MUSK (human) (UniProt O15146)
[9] = target: MKNK2 (human) (UniProt Q9HBH9)
[10] = target: CLK3 (human) (UniProt P49761)
[11] = target: CDK7 (human) (UniProt P50613)
[12] = target: RPS6KA1 KD2 (human) (UniProt Q15418)
[13] = system: KIT (human), P10721 [V559D]
[14] = target: DCLK1 (human) (UniProt O15075)
[15] = target: DDR2 (human) (UniProt Q16832)
[16] = target: PRKACB (human) (UniProt P22694)
[17] = target: MST1R (human) (UniProt Q04912)
[18] = target: PRKAA2 (human) (UniProt P54646)
[19] = target: TESK1 (human) (UniProt Q15569)
[20] = target: STK16 (human) (UniProt O75716)
[21] = target: SIK2 (human) (UniProt Q9H0K1)
[22] = target: ADCK4 (human) (UniProt Q96D53)
[23] = target: ULK1 (human) (UniProt O75385)
[24] = target: AURKA (human) (UniProt O14965)
[25] = target: FER (human) (UniProt P16591)
[26] = target: WEE2 (human) (UniProt P0C1S8)
[27] = target: FGFR2 (human) (UniProt P21802)
[28] = target: MAPK7 (human) (UniProt Q13164)
[29] = target: CLK1 (human) (UniProt P49759)
[30] = target: RPS6KA2 KD2 (human) (UniProt Q15349)
[31] = target: ULK2 (human) (UniProt Q8IYT8)
[32] = target: TNNI3K (human) (UniProt Q59H18)
[33] = target: EPHB1 (human) (UniProt P54762)
[34] = target: SGK110 (human) (UniProt P0C264)
[35] = target: MAPK8 (human) (UniProt P45983)
[36] = target: STK17A (human) (UniProt Q9UEE5)
[37] = target: PDPK1 (human) (UniProt O15530)
[38] = target: MAP4K2 (human) (UniProt Q12851)
[39] = target: CDK16 (human) (UniProt Q00536)
[40] = target: EPHA2 (human) (UniProt P29317)

WEE2 (human), sequence (P0C1S8 whole entry, looked up): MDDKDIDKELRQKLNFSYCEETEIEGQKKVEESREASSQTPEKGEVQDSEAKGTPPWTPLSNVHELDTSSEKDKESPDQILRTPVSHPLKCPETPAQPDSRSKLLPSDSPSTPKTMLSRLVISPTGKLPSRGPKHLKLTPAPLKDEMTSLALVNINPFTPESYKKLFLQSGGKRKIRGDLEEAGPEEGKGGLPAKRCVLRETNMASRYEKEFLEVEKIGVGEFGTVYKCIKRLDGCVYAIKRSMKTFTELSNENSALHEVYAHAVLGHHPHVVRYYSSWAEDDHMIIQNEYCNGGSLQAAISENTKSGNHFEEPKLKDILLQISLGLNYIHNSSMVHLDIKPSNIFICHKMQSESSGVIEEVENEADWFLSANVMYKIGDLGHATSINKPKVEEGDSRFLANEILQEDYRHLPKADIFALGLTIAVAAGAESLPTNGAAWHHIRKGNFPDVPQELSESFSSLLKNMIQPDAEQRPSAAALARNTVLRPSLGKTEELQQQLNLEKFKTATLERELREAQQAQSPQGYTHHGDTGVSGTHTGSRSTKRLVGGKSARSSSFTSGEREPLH
MAPK8 (human), sequence (P45983 whole entry, looked up): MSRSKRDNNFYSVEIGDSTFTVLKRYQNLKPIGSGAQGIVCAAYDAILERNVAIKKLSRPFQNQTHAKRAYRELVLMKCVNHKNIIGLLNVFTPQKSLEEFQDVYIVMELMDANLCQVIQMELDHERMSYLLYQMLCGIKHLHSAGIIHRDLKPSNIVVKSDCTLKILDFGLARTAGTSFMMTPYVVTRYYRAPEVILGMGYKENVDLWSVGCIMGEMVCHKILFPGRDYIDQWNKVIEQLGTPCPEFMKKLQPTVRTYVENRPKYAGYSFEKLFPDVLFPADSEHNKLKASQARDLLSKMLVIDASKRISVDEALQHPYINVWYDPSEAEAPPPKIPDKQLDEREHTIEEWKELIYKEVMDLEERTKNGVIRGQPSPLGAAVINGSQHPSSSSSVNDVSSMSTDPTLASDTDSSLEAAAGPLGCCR
CDK16 (human), sequence (Q00536 whole entry, looked up): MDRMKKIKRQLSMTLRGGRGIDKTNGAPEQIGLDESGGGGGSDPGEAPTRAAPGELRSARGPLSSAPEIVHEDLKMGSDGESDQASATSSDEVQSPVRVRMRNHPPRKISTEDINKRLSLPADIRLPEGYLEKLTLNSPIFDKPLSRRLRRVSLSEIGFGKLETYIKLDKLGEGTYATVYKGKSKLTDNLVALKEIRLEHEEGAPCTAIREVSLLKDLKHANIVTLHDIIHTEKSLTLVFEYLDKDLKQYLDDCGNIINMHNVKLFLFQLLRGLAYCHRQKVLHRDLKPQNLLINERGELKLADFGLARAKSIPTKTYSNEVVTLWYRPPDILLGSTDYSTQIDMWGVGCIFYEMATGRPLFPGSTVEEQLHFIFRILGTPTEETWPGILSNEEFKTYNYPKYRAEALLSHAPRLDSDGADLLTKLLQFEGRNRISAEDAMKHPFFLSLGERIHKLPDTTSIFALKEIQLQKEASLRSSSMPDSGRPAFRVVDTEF
ULK2 (human), sequence (Q8IYT8 whole entry, looked up): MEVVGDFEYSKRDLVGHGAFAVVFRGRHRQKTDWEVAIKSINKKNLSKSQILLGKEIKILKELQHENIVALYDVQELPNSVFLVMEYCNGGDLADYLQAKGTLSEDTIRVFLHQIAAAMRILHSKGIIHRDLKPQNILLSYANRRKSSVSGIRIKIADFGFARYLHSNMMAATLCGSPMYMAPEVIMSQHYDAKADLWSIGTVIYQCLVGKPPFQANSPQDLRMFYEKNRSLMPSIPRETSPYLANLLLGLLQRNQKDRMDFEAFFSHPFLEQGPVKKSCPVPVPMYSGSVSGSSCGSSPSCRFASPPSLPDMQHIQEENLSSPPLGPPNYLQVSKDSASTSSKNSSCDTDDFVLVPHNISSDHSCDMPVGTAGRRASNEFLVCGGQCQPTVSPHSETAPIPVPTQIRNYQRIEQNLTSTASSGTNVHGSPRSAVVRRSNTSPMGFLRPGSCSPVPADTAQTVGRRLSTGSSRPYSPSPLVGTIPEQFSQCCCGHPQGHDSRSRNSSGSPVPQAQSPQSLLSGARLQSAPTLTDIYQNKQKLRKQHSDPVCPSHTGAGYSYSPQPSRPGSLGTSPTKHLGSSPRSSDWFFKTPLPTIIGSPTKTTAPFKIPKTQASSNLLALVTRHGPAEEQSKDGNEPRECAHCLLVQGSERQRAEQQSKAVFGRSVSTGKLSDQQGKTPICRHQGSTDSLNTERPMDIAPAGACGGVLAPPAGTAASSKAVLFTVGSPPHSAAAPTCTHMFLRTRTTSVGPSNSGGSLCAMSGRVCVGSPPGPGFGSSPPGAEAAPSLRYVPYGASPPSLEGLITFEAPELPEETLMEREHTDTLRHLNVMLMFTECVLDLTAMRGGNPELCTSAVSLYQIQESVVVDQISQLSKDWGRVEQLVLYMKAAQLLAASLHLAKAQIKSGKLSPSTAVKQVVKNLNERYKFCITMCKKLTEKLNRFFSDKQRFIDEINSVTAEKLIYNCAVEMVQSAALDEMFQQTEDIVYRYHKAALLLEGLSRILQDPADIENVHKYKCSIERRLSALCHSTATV
KIT (human), P10721 [V559D], sequence (P10721 whole entry V559D, looked up): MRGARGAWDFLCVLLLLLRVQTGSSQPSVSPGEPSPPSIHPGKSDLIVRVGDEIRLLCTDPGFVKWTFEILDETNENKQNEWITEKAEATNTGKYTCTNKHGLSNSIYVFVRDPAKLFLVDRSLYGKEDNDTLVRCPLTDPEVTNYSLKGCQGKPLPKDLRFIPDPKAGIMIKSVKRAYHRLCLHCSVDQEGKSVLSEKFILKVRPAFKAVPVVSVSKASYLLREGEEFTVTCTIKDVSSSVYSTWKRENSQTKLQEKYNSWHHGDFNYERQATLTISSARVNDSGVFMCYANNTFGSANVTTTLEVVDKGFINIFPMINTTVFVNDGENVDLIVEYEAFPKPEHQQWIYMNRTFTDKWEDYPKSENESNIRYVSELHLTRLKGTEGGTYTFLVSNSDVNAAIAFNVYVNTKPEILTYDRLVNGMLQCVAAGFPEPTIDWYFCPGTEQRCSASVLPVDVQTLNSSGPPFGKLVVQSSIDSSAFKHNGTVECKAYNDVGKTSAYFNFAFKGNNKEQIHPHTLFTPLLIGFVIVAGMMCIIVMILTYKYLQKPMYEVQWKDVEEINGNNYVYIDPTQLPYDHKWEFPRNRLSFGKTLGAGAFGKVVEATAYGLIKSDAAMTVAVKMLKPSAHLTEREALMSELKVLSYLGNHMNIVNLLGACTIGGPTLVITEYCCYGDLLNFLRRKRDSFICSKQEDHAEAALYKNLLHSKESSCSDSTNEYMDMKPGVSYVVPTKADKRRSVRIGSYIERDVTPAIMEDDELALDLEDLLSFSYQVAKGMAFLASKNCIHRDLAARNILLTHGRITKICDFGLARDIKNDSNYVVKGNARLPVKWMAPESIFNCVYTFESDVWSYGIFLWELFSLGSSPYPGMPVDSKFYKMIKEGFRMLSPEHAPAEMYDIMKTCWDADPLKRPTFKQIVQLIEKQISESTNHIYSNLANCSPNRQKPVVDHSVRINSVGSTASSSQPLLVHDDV
MAP4K2 (human), sequence (Q12851 whole entry, looked up): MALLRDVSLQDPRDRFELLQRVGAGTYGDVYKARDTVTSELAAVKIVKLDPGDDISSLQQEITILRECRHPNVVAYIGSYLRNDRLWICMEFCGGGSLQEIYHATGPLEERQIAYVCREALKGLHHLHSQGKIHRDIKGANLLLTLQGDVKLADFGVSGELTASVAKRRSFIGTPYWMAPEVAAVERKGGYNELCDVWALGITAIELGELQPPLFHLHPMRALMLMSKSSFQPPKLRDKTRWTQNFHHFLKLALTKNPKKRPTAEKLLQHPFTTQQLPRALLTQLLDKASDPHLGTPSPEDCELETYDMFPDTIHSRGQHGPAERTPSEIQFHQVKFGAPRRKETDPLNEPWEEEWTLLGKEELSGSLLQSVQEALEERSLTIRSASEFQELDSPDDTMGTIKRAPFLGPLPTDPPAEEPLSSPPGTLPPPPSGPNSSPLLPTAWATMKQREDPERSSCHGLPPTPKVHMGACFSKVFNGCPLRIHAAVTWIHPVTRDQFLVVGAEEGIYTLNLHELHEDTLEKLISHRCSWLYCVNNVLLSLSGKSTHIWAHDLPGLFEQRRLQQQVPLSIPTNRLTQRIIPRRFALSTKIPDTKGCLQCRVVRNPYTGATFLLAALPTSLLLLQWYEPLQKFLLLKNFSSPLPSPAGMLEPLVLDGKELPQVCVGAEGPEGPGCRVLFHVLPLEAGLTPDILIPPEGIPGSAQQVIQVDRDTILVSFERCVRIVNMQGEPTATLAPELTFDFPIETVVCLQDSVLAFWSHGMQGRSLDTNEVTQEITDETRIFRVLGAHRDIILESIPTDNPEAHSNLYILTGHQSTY
ACVR1B (human), sequence (P36896 whole entry, looked up): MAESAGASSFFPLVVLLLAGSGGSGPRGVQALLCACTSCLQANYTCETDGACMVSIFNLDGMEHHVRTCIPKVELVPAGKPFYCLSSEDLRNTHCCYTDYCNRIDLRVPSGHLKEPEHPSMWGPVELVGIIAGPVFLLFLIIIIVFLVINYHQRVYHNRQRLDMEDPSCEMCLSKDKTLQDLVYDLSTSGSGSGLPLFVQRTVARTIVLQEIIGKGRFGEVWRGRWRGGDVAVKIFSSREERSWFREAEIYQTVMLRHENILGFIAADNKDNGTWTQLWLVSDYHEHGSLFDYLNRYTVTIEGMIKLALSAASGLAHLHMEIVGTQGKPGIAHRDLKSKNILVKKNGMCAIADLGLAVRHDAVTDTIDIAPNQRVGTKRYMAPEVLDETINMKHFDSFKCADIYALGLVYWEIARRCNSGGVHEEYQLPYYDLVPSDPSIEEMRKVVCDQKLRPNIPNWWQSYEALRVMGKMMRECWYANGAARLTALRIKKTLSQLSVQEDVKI

| SMILES | kinase still bound, per cent of control [1] [%] | kinase still bound, per cent of control [2] [%] | kinase still bound, per cent of control [3] [%] | kinase still bound, per cent of control [4] [%] | kinase still bound, per cent of control [5] [%] | kinase still bound, per cent of control [6] [%] | kinase still bound, per cent of control [7] [%] | kinase still bound, per cent of control [8] [%] | kinase still bound, per cent of control [9] [%] | kinase still bound, per cent of control [10] [%] | kinase still bound, per cent of control [11] [%] | kinase still bound, per cent of control [12] [%] | kinase still bound, per cent of control [13] [%] | kinase still bound, per cent of control [14] [%] | kinase still bound, per cent of control [15] [%] | kinase still bound, per cent of control [16] [%] | kinase still bound, per cent of control [17] [%] | kinase still bound, per cent of control [18] [%] | kinase still bound, per cent of control [19] [%] | kinase still bound, per cent of control [20] [%] | further results |
| --- | --- | --- | --- | --- | --- | --- | --- | --- | --- | --- | --- | --- | --- | --- | --- | --- | --- | --- | --- | --- | --- |
| O=C1Nc2ccc(I)cc2/C1=C/c1cc(Br)c(O)c(Br)c1 | 94 | 33 | 100 | 84 | 66 | 86 | 100 | 74 | 89 | 84 | 67 | 12 | 1.8 | 86 | 73 | 100 | 100 | 100 | 100 | 90 | kinase still bound, per cent of control [21]: 84%; kinase still bound, per cent of control [22]: 65%; kinase still bound, per cent of control [23]: 100%; kinase still bound, per cent of control [24]: 65%; kinase still bound, per cent of control [25]: 100%; kinase still bound, per cent of control [26]: 94%; kinase still bound, per cent of control [27]: 59%; kinase still bound, per cent of control [28]: 5%; kinase still bound, per cent of control [29]: 34%; kinase still bound, per cent of control [30]: 45%; kinase still bound, per cent of control [31]: 90%; kinase still bound, per cent of control [32]: 76%; kinase still bound, per cent of control [33]: 100%; kinase still bound, per cent of control [34]: 100%; kinase still bound, per cent of control [35]: 86%; kinase still bound, per cent of control [36]: 2.5%; kinase still bound, per cent of control [37]: 100%; kinase still bound, per cent of control [38]: 68%; kinase still bound, per cent of control [39]: 89%; kinase still bound, per cent of control [40]: 83% |
| C=CC(=O)Nc1cc(NC(=O)c2ccc(C)c(NC(=O)c3ccno3)c2)cc(C(F)(F)F)c1 | 100 | 100 | 100 | 100 | 9.8 | 100 | 100 | 100 | 100 | 100 | 91 | 100 | 1.4 | 100 | 40 | 100 | 99 | 100 | 100 | 100 | kinase still bound, per cent of control [21]: 100%; kinase still bound, per cent of control [22]: 97%; kinase still bound, per cent of control [23]: 100%; kinase still bound, per cent of control [24]: 95%; kinase still bound, per cent of control [25]: 100%; kinase still bound, per cent of control [26]: 84%; kinase still bound, per cent of control [27]: 99%; kinase still bound, per cent of control [28]: 92%; kinase still bound, per cent of control [29]: 93%; kinase still bound, per cent of control [30]: 100%; kinase still bound, per cent of control [31]: 100%; kinase still bound, per cent of control [32]: 54%; kinase still bound, per cent of control [33]: 79%; kinase still bound, per cent of control [34]: 100%; kinase still bound, per cent of control [35]: 100%; kinase still bound, per cent of control [36]: 100%; kinase still bound, per cent of control [37]: 94%; kinase still bound, per cent of control [38]: 100%; kinase still bound, per cent of control [39]: 95%; kinase still bound, per cent of control [40]: 28% |
